# Like-named read-outs stand apart in the source and are kept apart here.
# How the values were obtained:
# [1] = test system: MCF-7/Adr drug-resistant human mammary carcinoma cells; experiment: Drug resistance, viable cell number (Coulter Counter); format: cell-based
# Protocol: (§1) FIG. 15A is a line graph showing that MCF-7/Adr drug-resistant human mammary carcinoma cells grown in culture with hyaluronan oligomers are sensitized to doxorubicin. MCF-7/Adr cells were obtained from MCF-7 cells by being selected for drug resistance by exposure to doxorubicin. Cells were grown for 24 h in 24-well plates in RPMI 1640 medium containing Glutamex 1 plus 10% fetal bovine serum at 37° in 5% CO2. Various concentrations of doxorubicin (doxo) were then added and the cells incubated for another 72 h, followed by a further 24 h in the presence or absence of 100 μg/ml hyaluronan oligomers (o-HA). The oligomers were a mixed population of 3-8 repeating disaccharides in length. The cells were then harvested and the number of viable cells was determined in a Coulter Counter.
# FIG. 18 is a set of line graphs showing a resulting cell number, on the ordinate, following drug treatment with doxorubicin, concentration (log) in nM on the abscissa, showing restoration of drug sensitivity (inhibition of drug resistance) by HA oligomers, soluble hyaluronan-binding decoys, and CD44 siRNA, using derivatives of MCF-7 cells as in FIG. 17 above.
# Therefore, the effect of co-treatment with hyaluronan oligomers on drug resistance was examined in an established system, i.e. MCF-7/Adr human mammary carcinoma cells that have been selected for resistance to doxorubicin (Fairchild, C. R., et al., Cancer Res 47, 5141-8, 1987). First, the effect of hyaluronan oligomers on resistance to doxorubicin in the MCF-7/Adr cells versus the relatively drug-sensitive, parental MCF-7 cell line was compared.
# [2] = test system: MCF-7 human mammary carcinoma cells; experiment: as above; format: cell-based
# Protocol: as §1
# [3] = test system: MCF-7 cells infected with Has2, emmprin or β-galactosidase adenovirus; experiment: Doxorubicin resistance of recombinant adenovirus-infected MCF-7 cells; format: cell-based, human; conditions: for IC50: Homo sapiens, MCF7, 48 h, 48 h
# Protocol: Untreated MCF-7 cells or cells infected overnight with a recombinant Has2 adenovirus or a control β-galactosidase adenovirus (β-gal) were washed, then treated in culture for 48 h with 1-1000 nM doxorubicin, followed by analysis of cell number.
# Cells were treated in culture for 48 h with 10-1000 nM doxorubicin in the presence or absence of 100 μg/ml o-HA and analyzed as in FIG. 16A.
# FIG. 16C is a line graph showing doxorubicin response of untreated MCF-7 cells or cells infected overnight with a recombinant emmprin adenovirus or a control β-galactosidase adenovirus (β-gal) that were treated as described in FIG. 16B.
# Emmprin adenovirus-infected MCF-7 cells or control β-galactosidase adenovirus (β-gal)-infected cells were treated in the presence or absence of 100 μg/ml hyaluronan oligomers (o-HA) as described in FIG. 16B. The results in FIGS. 16A-D are expressed as the means (±S.D) of three independent experiments performed in triplicate.
# [4] = test system: MDA-MB231 human mammary carcinoma cells; experiment: Methotrexate resistance, cell number in monolayer culture; format: cell-based
# Protocol: MDA-MB231 human mammary carcinoma cells were treated with increasing concentrations of methotrexate (MTX) in the presence or absence of 100 μg/ml HA oligomers. Cells were grown in monolayer culture in 10% fetal bovine serum and cell number measured in a coulter counter. The MTT assay for viable cells (Denizot, F., et al. J Immunol Methods, 89: 271-277, 1986) gave similar results.
# Effect of addition of hyaluronan oligomers on resistance of MDA-MB231 human breast cancer cells to treatment with methotrexate was assessed.
# [5] = Homo sapiens, NCI/ADR-RES, MCF-7/Adr cells, drug alone
# [6] = MCF-7/Adr + o-HA (100 μg/ml hyaluronan oligomers)
# [7] = Homo sapiens, MCF7, MCF-7 cells, drug alone
# [8] = MCF-7 + o-HA (100 μg/ml hyaluronan oligomers)
SMILES,"IC50 [1, 5] [nM]","IC50 [1, 6] [nM]","IC50 [2, 7] [nM]","IC50 [2, 8] [nM]",other results
COc1cccc2c1C(=O)c1c(O)c3c(c(O)c1C2=O)C[C@@](O)(C(=O)CO)C[C@@H]3O[C@H]1C[C@H](N)[C@H](O)[C@H](C)O1 [Doxorubicin],2200,40,30,40,increase in resistance to doxorubicin induced by increased hyaluronan production ([3]; HAS2 adenovirus-infected MCF-7 versus controls): 10-12 fold; IC50 ([3]; Has2 adenovirus-infected MCF-7 cells): 210 nM; IC50 ([3]; uninfected MCF-7 cells): 18 nM; IC50 ([3]; β-galactosidase adenovirus-infected MCF-7 cells): 20 nM
"O=NN(CCCl)C(=O)NCCCl [BCNU, 1,3 bis(2-chloroethyl)-1-nitrosurea]",,180,,1200,"IC50 ([1]; MCF-7/Adr cells, drug alone): 14000 nM; IC50 ([2]; MCF-7 cells, drug alone): 500 nM"
CN(Cc1cnc2nc(N)nc(N)c2n1)c1ccc(C(=O)N[C@@H](CCC(=O)O)C(=O)O)cc1 [Methotrexate],,,20,,"IC50 ([4]; MDA-MB-231, MB231 cells, with 100 μg/ml hyaluronan oligomer (FIG. 12), read-out: IC50): ~10 nM; IC50 ([4]; MDA-MB-231, MB231 cells, without hyaluronan oligomer (FIG. 12), read-out: IC50): ~1000 nM; IC50 ([4]; MDA-MB-231, MDA-MB231 + o-HA (100 μg/ml hyaluronan oligomers), read-out: IC50 values): 6 nM; IC50 ([4]; MDA-MB-231, MDA-MB231 cells, drug alone, read-out: IC50 values): 800 nM"
CC(=O)O[C@H]1C(=O)[C@@]2(C)[C@H]([C@H](OC(=O)c3ccccc3)[C@]3(O)C[C@H](OC(=O)[C@H](O)[C@@H](NC(=O)c4ccccc4)c4ccccc4)C(C)=C1C3(C)C)[C@]1(OC(C)=O)CO[C@@H]1C[C@@H]2O [Taxol],700,60,350,,
CC[C@]1(O)C[C@H]2CN(CCc3c([nH]c4ccccc34)[C@@](C(=O)OC)(c3cc4c(cc3OC)N(C=O)[C@H]3[C@@](O)(C(=O)OC)[C@H](OC(C)=O)[C@]5(CC)C=CCN6CC[C@]43[C@@H]65)C2)C1 [Vincristine],200,20,30,,

# — US8648047B2, “Methods and compositions for inhibition of multi-drug resistance by hyaluronan oligomers” (Tufts University, priority 2002, dated 2014)
